# Legend:
# db/db mice = settings: ref Cha et al. [93]; cited from earlier work
# Excerpt: To strengthen this finding, we examined the expression of the PPARγ-responsive genes adiponectin, Fabp4, and Cidec [[71], [72], [73], [74],[88], [89], [90], [91]]. Adiponectin may mediate the beneficial effects of PPARγ agonists for the treatment of diabetes, as it is an insulin-sensitizing adipokine that affects hepatic glucose output and decre ...
# Serum leptin = type: in vivo; settings: db/db mice, 2.5 μmol/kg/day, 8 days; ELISA; n = 5
# Procedure: All of the experiments were performed according to the animal ethical laws of the state Saxony, Germany, and were approved by the local animal ethics review board (Landesdirektion Sachsen, Leipzig, Germany). Female db/db mice 12–15 weeks of age were purchased from Taconic (Denmark) and housed in groups of 5 in temperature- and humidity-controlled facilities in a 12 h:12 h light–dark cycle and had free access to tap water and food (regular chow, Sniff, Soest, Germany). Three out of seven groups served as controls (N = 15, see Table 1). The 5 db/db mice were untreated and 10 db/db mice were vehicle treated either orally or intraperitoneally (i.p.). One additional group (n = 5) of lean C57BL/6NTac mice was used as a metabolically healthy control group. […]
# Serum insulin (mouse insulin ELISA, Mercodia, Uppsala, Sweden), adiponectin (mouse adiponectin ELISA, AdipoGen, San Diego, CA, USA), leptin (mouse leptin ELISA, Crystal Chem, Downers Grove, IL, USA), and Mcp-1 (mouse/rat CCL2/JE/Mcp-1 Quantikine ELISA, R&D Systems, Minneapolis, MN, USA) levels were analyzed via ELISA according to the manufacturer's instructions. Serum concentrations of TG, FFA, and cholesterol were measured by an automatic chemical analyzer at the Institute of Laboratory Medicine and Clinical Chemistry.
# 3T3-L1 cells = assay: qRT-PCR of adipocyte-marker genes, 3T3-L1; type: cell-based, murine; settings: qPCR, vs DMSO; n ≥ 3
# Procedure: The 3T3-L1 or SGBS cells were seeded into 6-well plates and differentiated as previously described. Tesa or peptides were added to the differentiation medium at a concentration of 100 μM on day 2, followed by 12 h or 24 h incubation. On day 4, the cells were washed two times with PBS, harvested by trypsinization, and stored at −70 °C until RNA isolation was performed. […] N ≥ 3 independent experiments with two replicates were performed. For the cell culture experiments, the data were analyzed according to the 2^−ΔΔCt method using 36B4 or GAPDH as housekeeping genes and DMSO treatment as a control. Liver mRNA expression was calculated relative to 18sRNA, which was used as an internal control due to its resistance to glucose-dependent regulation. The mRNA levels were quantified using the standard curve method of QuantStudio 6 Flex software (Applied Biosystems, Foster City, CA, USA), determining the crossing points of the individual samples using an algorithm that identifies the first turning point of the fluorescence curve. Amplification of the specific transcripts was confirmed by the melting curve profiles (cooling the sample to 68 °C and heating slowly to 95 °C while measuring the fluorescence) at the end of each PCR [53].
# (A, B) Cells were differentiated and stimulated according to the protocol depicted for 3T3-L1 (A) and for SGBS (B). […] Bars represent mean ± SEM from n = 3 independent experiments performed in quadruplicates. Measurements were normalized using DMSO (vehicle)-treated cells (set to 100%). Statistical significances refer to vehicle-treated cells. (E,F) Expression of adipocyte-enriched genes in 3T3-L1 (E) or SGBS (F) adipocytes analyzed by qPCR. Values represent mean ± SEM from n ≥ 3 independent experiments performed in duplicates. […] Statistical significances refer to DMSO-treated cells and were determined by one-way analysis of variance (ANOVA) followed by Dunnett's multiple comparison test, *≤0.05, **p ≤ 0.01, ***p ≤ 0.001.
# [1] = cited from earlier work
# Excerpt: The dual PPARα/γ agonist tesaglitazar (tesa), in contrast, contains a carboxyl function suitable for synthesis. […] The clinical investigation of tesa was discontinued in phase III because of safety concerns regarding ...
# 3T3-L1 preadipocytes = assay: AdipoRed adipogenesis assay, 3T3-L1; type: cell-based, murine; settings: 24 h; tesa 10/25/100 μM, tesa-NPY 100 μM; AdipoRed fluorescence, DMSO = 100%; n = 3 in quadruplicate
# Procedure: 3T3-L1 or SGBS cells were seeded into 96-well plates and grown to complete confluency (set as day 0). On day 2 of confluence, the 3T3-L1 cells were differentiated by DMEM High Glucose Medium supplemented with 10% (v/v) not-heat inactivated FCS, 0.5 mM IBMX, 167 nM human insulin, and 1 μM dexamethasone (differentiation medium). On day 4, the medium was replaced by insulin medium (DMEM High Glucose Medium, 10% not-heat inactivated FCS, and 167 nM human insulin). On day 6, the medium was changed to standard culture medium and changed every other day until full differentiation was achieved (on day 8). The SGBS cells were differentiated as previously described. […] On day 4, the medium was replaced by 3FC medium (DMEM High Glucose Medium and Hams F12 (1:1 (v/v))) without FCS and supplemented with 0.01 mg human apo-transferrin, 20 nM human insulin, triiodo-L-thyronine, and 100 nM hydrocortisone. The medium was changed every second day until full differentiation was achieved (day 10). […]
# (A, B) Cells were differentiated and stimulated according to the protocol depicted for 3T3-L1 (A) and for SGBS (B). […] (E,F) Expression of adipocyte-enriched genes in 3T3-L1 (E) or SGBS (F) adipocytes analyzed by qPCR. […] Statistical significances refer to DMSO-treated cells and were determined by one-way analysis of variance (ANOVA) followed by Dunnett's multiple comparison test, *≤0.05, **p ≤ 0.01, ***p ≤ 0.001.
structure (smiles),measurement,setting,value
"CCO[C@@H](Cc1ccc(OCCc2ccc(OS(C)(=O)=O)cc2)cc1)C(=O)O [tesa, tesaglitazar]",adiponectin mRNA expression and plasma levels,db/db mice,induces increased adiponectin mRNA expression and plasma levels in db/db mice
same,serum leptin concentration,Serum leptin,no significant effect
same,"Cidec expression, 3T3-L1",3T3-L1 cells,enhanced
same,"Fabp4 expression, 3T3-L1",3T3-L1 cells,enhanced
same,"adiponectin expression, 3T3-L1",3T3-L1 cells,upregulated
same,insulin resistance,"[1]; mice and humans, ref [41, 42, 43]",reduce insulin resistance in mice and humans
same,clinical safety,"[1]; phase III, ref [16, 44]",discontinued in phase III because of safety concerns regarding renal dysfunction
same,"adipogenesis (triglyceride content), 3T3-L1",3T3-L1 preadipocytes,enhanced adipogenesis in both cell lines
